Data taken from PMC10486429, “Investigations Using Albumin Binders to Modify the Tissue Distribution Profile of Radiopharmaceuticals Exemplified with Folate Radioconjugates” (Cancers, 2023).

What was measured:
[1] = n-octanol/PBS distribution coefficient (shake-flask) of 177Lu-DOTA-ALBs; format: physicochemical; details: n-octanol/PBS pH 7.4
Description: The radiolabeling of DOTA-ALBs was carried out under standard labeling conditions at pH 4.5. The ligands (10−100 μM) were mixed with lutetium-177 (no-carrier added [^177Lu]LuCl3; in 0.04 M HCl; ITM GmbH Medical Isotopes, Munich, Germany) to reach molar activities of 25–50 MBq/nmol (Supplementary Materials Section S2). An analytical HPLC system equipped with a C18 column and a radioactivity detector was used for quality control of the radiolabeled DOTA-ALBs (Supplementary Materials Section S2). The ^177Lu-DOTA-ALBs were used for preclinical investigations without separation of the labeled from the unlabeled fraction. The radiolytic stability of the ^177Lu-DOTA-ALBs (50 MBq/nmol) diluted in phosphate-buffered saline (PBS; 100 MBq/500 μL) was assessed in vitro in the absence and presence of L-ascorbic acid (Supplementary Materials Section S3). The n-octanol/PBS distribution coefficients (logD values) were determined using a shake-flask method according to an established protocol (Supplementary Materials Section S4). The logD values were analyzed using a one-way ANOVA with Tukey’s multiple comparisons post-test using GraphPad Prism software (version 8). […]
Purpose: The n-octanol/PBS distribution coefficients (logD values) were determined for all 177Lu-DOTA-ALBs in order to assess their hydrophilic/hydrophobic properties.
Methods: The n-octanol/PBS distribution coefficients (logD values) of the 177Lu-DOTA-ALBs were determined as previously described. […]
The vials were vortexed vigorously for 1 min followed by centrifugation for 6 min at 560 rcf for phase separation. An aliquot was taken from each phase and measured in a γ-counter (Perkin Elmer, Wallac Wizard 1480, Waltham, MA, USA). The distribution coeffi-cients were calculated as the logarithm of the ratio of counts per minute (cpm) measured in the n-octanol phase relative to the cpm measured in the PBS phase. […]
Methods: Relative binding affinities of 177Lu-DOTA-ALBs to mouse (MSA) and hu-man (HSA) serum albumin in the respective blood plasma were determined using an ul-trafiltration assay according to a previously described procedure. […]

[2] = system: mouse serum albumin (MSA) in mouse blood plasma; assay: Ultrafiltration albumin-binding assay of 177Lu-DOTA-ALBs, mouse blood plasma
Description: (§1) The relative affinities of ^177Lu-labeled DOTA-ALBs (50 MBq/nmol) to albumin in mouse and human blood plasma were determined using an ultrafiltration assay according to a previously described procedure (Supplementary Materials Section S5). A dry chemistry analyzer (DRI-CHEM 4000i, FUJIFILM, Japan) was used to determine the mouse serum albumin concentration (conc. MSA: ~550 µM) in mouse blood plasma (Rockland Immunochemicals, Inc., Pottstown, PA, USA, Lot No. 23248) and the human serum albumin concentration (conc. HSA: ~800 µM) in human blood plasma of a healthy volunteer (Stiftung Blutspende SRK Aargau-Solothurn, Aarau, Switzerland). The albumin-bound fraction of the radioligands was determined at variable molar concentration ratios of serum albumin to the respective radiolabeled DOTA-ALB using a blood plasma/PBS dilution series and a constant amount of ^177Lu-DOTA-ALBs (0.5 MBq; 0.01 nmol). The free (albumin-unbound) radioligand fraction was separated from the albumin-bound fraction using Centrifree filter devices (cut-off 10 kDa; Merck Millipore, Carrigtwohill, Ireland) to enable the calculation of the percentage of albumin-bound radioligand. […] The results were presented as average ± standard deviation (SD) of 3 independent experiments. […]
(§2) S5. Relative Albumin-binding Properties of 177Lu-DOTA-ALBs
(§3) Purpose: The relative albumin-binding affinities of the 177Lu-DOTA-ALBs were in-vestigated using mouse and human blood plasma.
(§4) Methods: Relative binding affinities of 177Lu-DOTA-ALBs to mouse (MSA) and hu-man (HSA) serum albumin in the respective blood plasma were determined using an ul-trafiltration assay according to a previously described procedure. In brief, an average MSA concentration of ⁓550 µM was measured for mouse blood plasma (Rockland Immu-nochemicals, Inc., Pottstown, PA, USA, Lot N° 23248), while an HSA concentration of ⁓800 µM was determined for human blood plasma (Stiftung Blutspende SRK Aargau-Solothurn, Aarau, Switzerland) using a dry chemistry analyzer (DRI-CHEM 4000i, FUJI-FILM, Japan). A fixed amount of the respective 177Lu-DOTA-ALB (50 MBq/nmol:, ~500 kBq, 25 µL, 0.01 nmol) was added to a defined volume (250 µL) of mouse and human […]
(§5) and 0.01 to 20000, respectively. […]
(§6) off 10 kDa; Merck Millipore, Carrigtwohill, Ireland). The albumin-bound fractions at the […]
(§7) the half-maximum binding (B50). The relative albumin-binding affinities were defined as […]
(§8) sented as average ± SD of 3 independent experiments.
(§9) Results: The results are reported in the main article.
(§10) S6. Blood Clearance of 177Lu-DOTA-ALBs […]
(§11) their blood clearance profile.
(§12) Blood clearance of 177Lu-labeled DOTA-ALBs were determined in n=3–6 mice per radioligand. The radiolabeled DOTA-ALBs ( […]
(§13) various timepoints over the following 48 h. […]
(§14) up to 3 and 7 days, respectively. […]

[3] = system: human serum albumin (HSA) in human blood plasma; assay: Ultrafiltration albumin-binding assay of 177Lu-DOTA-ALBs, human blood plasma
Description: as §1, §2, §3, §4, §5, §6, §7, §8, §9, §10, §11, §12, §13, §14

## O=C(O)CN1CCN(CC(=O)O)CCN(CC(=O)NCCC(=O)N[C@@H](CCCCNC(=O)c2ccc(CNC(=O)CCCCc3ccc(I)cc3)cc2)C(=O)O)CCN(CC(=O)O)CC1.[177Lu] [[^177Lu]Lu-DOTA-ALB-25]
[1]
  logD value: −2.39 ± 0.04
[2]
  Fold higher albumin-binding affinity than [177Lu]Lu-DOTA-ALB-24: ~ 5 fold
[3]
  Fold higher albumin-binding affinity than [177Lu]Lu-DOTA-ALB-24: ~ 3 fold

## O=C(O)CN1CCN(CC(=O)O)CCN(CC(=O)NCCC(=O)N[C@@H](CCCCNC(=O)CCCc2ccc(I)cc2)C(=O)O)CCN(CC(=O)O)CC1.[177Lu] [[^177Lu]Lu-DOTA-ALB-1]
[2]
  Fold higher albumin-binding affinity than [177Lu]Lu-DOTA-ALB-24: ~ 3 fold
[3]
  Fold higher albumin-binding affinity than [177Lu]Lu-DOTA-ALB-24: ~ 10 fold

## O=C(O)CN1CCN(CC(=O)O)CCN(CC(=O)NCCC(=O)N[C@@H](CCCCNC(=O)c2ccc(CNC(=O)CCCc3ccc(I)cc3)cc2)C(=O)O)CCN(CC(=O)O)CC1.[177Lu] [[^177Lu]Lu-DOTA-ALB-3]
[1]
  logD value: −2.64 ± 0.04
[2]
  Fold increased albumin-binding affinity relative to [177Lu]Lu-DOTA-ALB-1: ~ 15 fold
  Fold stronger albumin-binding affinity than [177Lu]Lu-DOTA-ALB-25: ~ 10 fold
[3]
  Albumin-binding affinity relative to [177Lu]Lu-DOTA-ALB-1: almost no difference
  Fold stronger albumin-binding affinity than [177Lu]Lu-DOTA-ALB-25: ~ 4 fold

## O=C(O)CN1CCN(CC(=O)O)CCN(CC(=O)NCCC(=O)N[C@@H](CCCCNC(=O)CCCCc2ccc(I)cc2)C(=O)O)CCN(CC(=O)O)CC1.[177Lu] [[^177Lu]Lu-DOTA-ALB-24]
[1]
  logD value: −2.68 ± 0.06
